Results reported in patent publication US20030053952A1, “Therapeutic tool for vascular diseases” (Yasumi UCHIDA, priority 2001, published 2003).
“Also recorded” adds a separate entry of the source.

Tests used:
[1] = test system: vascular progenitor cells; assay: Grafting of dye-eluting artificial grafts to canine common carotid artery (percentage stenosis, progenitor cell count); assay type: in vivo, beagle dogs; conditions: dye-eluting artificial graft, 3 months after grafting
From the text: In anesthetized beagle dogs, the bilateral sides of the neck were incised to expose both right and left common carotid arteries. An 8 F sheath was introduced into the right femoral artery through which a 8 F catheter was introduced into the aortic arch for angiography of the carotid arteries. A dye-eluting artificial graft was sutured to the common carotid arteries in side to end fashion to make a shunt between the right and left common carotid arteries. Then, a segment of right carotid artery proximal to and that of left distal to anastomoses were ligatured. Thus, the blood drained from the left to the right common carotid artery. Similarly in other group, grafts coated with bionate or Sanpren without dye were sutured to the arteries as control group. The dogs were cared for 3 months according to the guideline and angiography was repeated. Percentage stenosis of the sutured portion was compared between the dye and control groups. After cardiac arrest as mentioned above, the grafts and arteries were removed and were used for microscopic examinations.

[2] = test system: vascular progenitor cells; assay: Implantation of dye-eluting stents into canine coronary artery (percentage stenosis, angioscopy, progenitor cell count); assay type: in vivo, beagle dogs; conditions: for Number of cells (250 × 250 μm^2), Adventitia / Number of cells (250 × 250 μm^2), Intima / Number of cells (250 × 250 μm^2), Media: dye-eluting stent, stented coronary segment, one month after implantation
Description: Beagle dogs of either sex was anesthetized with pentobarbital sodium (25 mg/kg, i.v.) and trachea was intubated for artificial respiration with air. The right side of the neck was incised longitudinally to expose right common carotid artery. An 8F sheath was introduced into the artery through which an 8F guiding catheter was introduced into the left coronary artery. After coronary angiography, a balloon catheter clinically used for PTCA was introduced to dilate anterior descending artery. Then, a balloon catheter with a dye-eluting stent on it was introduced into the dilated segment of left anterior descending artery and it was inflated at 9 atms to implant the stent. After recovery from anesthesia, the dogs were cared according the guideline of Jikei University School of Medicine. One month later, the dogs were anesthetized again and coronary angiography and angioscopy (Uchida Y: Coronary Angioscopy, Futura Publishing Co, NY, 2000) were performed to examine the changes in the stented coronary segment. […] Thereafter, the dogs were sacrificed with intracoronary pentobarbital and the heart was removed. The heart was fixed with 10% hormaldehyde solution for microscopic examination.
The coronary angiograms were used for calibration of the percentage stenosis, namely (diameter before stent implantation-minimum luminal diameter/diameter before stent implantation)×100 of the narrowest portion (minimum luminal diameter) in the stent and was compared. Student's t test was used for statistical analysis and when P<0.05, the value was considered significant.
The stented coronary segment was removed and cut into slice in 5 μm in thickness. The slices were stained with beta-actin antibody and the number of vascular progenitor cells per unit area was counted and was compared between the dye and control groups.

[3] = test system: vascular progenitor cells; assay: Local delivery of dyes by porous balloon into balloon-injured coronary artery; count of migrated vascular progenitor cells; assay type: in vivo, beagle dogs; conditions: dogs
Description: Adult beagle dogs of either sexes weighing from 7 to 12 kg were anesthetized with pentobarbital sodium (25-30 mg/kg, i.v.) and the trachea was intubated for artificial respiration with air. The right side of the neck was longitudinally incised to expose the right common carotid artery and an 8 F sheath was introduced, through which an 8F guiding catheter was introduced into the left coronary ostium for angiography. After angiography, a balloon catheter (2.5 mm×20 mm) was introduced through the guiding catheter into the middle to distal segment of either the anterior descending or circumflex artery. Then, the balloon was inflated at 9 atms to
dilate the segment to induced disruption of the endothelium and internal elastic lamina. The balloon catheter was replaced by a porous balloon catheter (3 mm×20 mm) with multiple pores in the balloon (Clinical Supply Co, Gifu, Japan) for local delivery of dyes. Thereafter, 0.2 ml of 5% Evans blue saline solution was injected through the porous balloon into the dilated segment at 3 atms in 6 dogs and 0.5 ml of 5% Ethidium bromide saline solution
was injected similarly in 5 dogs. […] The dilated coronary segment and its surrounding tissues were removed and sliced, vascular progenitor cells were stained with beta-smooth muscle actin antibody (DAKO EPOS, Glostrup, Denmark) and the number of vascular progenitor cells/250×250 μm^2 was counted.

[4] = Preliminary in vitro elution of dye from double-layer coated stent immersed in water; assay type: physicochemical
Description: a) A soft polycarbonate urethane with risin bionate (Bionate 80A, Polimertech, USA) was used. Evans blue powder was dissolved in the bionate to make 20% Evans blue solution. A commercially available coronary stent (NIR stent, 3 mm×12 mm or Palmatz-Schatz stent, 3 mm×12 mm) was immersed into the solution for 10 min to form slowly eluting inner layer. Then, the stent was dried at room temperature. Evans blue powder was dissolved in distilled water to make 20% solution. The same stent was immersed into the solution for 10 min to make rapidly eluting outer layer. The stent was dried at room temperature. Then, the stent was sterilized with ethylene oxide gas. In the preliminary experiment in vitro, Evans blue began to elute from the outer layer immediately after and ceased to elute within 60 min after immersion into water.

Which “Number of cells (250 × 250 μm^2), vascular progenitor cells at the anastomosed portion of the common carotid artery” value [1] does the source give for `CC[n+]1c(-c2ccccc2)c2cc(N)ccc2c2ccc(N)cc21` [Ethidium bromide] here?
The value was 11.1 ± 3.1 /250 × 250 μm^2.

What about the “Number of cells (250 × 250 μm^2), Adventitia” value [2] of the same compound?
Its value is 21.3 ± 9.9 /250 × 250 μm^2.

What about the “Number of cells (250 × 250 μm^2), Intima” value [2] of the same compound?
Its value is 8.3 ± 3.7 /250 × 250 μm^2.

What about the “Number of cells (250 × 250 μm^2), Media” value [2] of the same compound?
The value was 9.6 ± 5.0 /250 × 250 μm^2.

For `Cc1cc(-c2ccc(/N=N/c3ccc4c(S(=O)(=O)O)cc(S(=O)(=O)O)c(N)c4c3O)c(C)c2)ccc1/N=N/c1ccc2c(S(=O)(=O)O)cc(S(=O)(=O)O)c(N)c2c1O` [Evans blue], which “Migration of circulating vascular progenitor cells into the injured coronary wall” value [3] is on record?
Its value is “no migration of the cells was observed; also recorded: inhibit migration”.

What about the “Number of cells (250 × 250 μm^2), vascular progenitor cells at the anastomosed portion of the common carotid artery” value [1] of the same compound?
Its value is 13.4 ± 4.0 /250 × 250 μm^2.

And the “Time at which elution from the outer (rapidly eluting) layer ceased” value ([4]; stent coated from 20% aqueous dye solution, after immersion into water)?
Its value is no more than 60 min.

And the “Time at which elution from the inner (slowly eluting) layer began” value ([4]; stent coated from 20% dye in Bionate 80A, after immersion into water)?
The value was 60 min.

And the “Duration of elution from the inner (slowly eluting) layer” value ([4]; stent coated from 20% dye in Bionate 80A, immersion into water)?
The value was “up to one month”.

And the “Percentage stenosis of the stented coronary segments” value ([2]; angiography, 4 weeks after implantation of dye-coated stents, vs stents without dye)?
Its value is “significantly smaller”.

What about the “Angioscopic appearance of stenosis of the stented coronary segment” value ([2]; angioscopy, 4 weeks after stent implantation) of the same compound?
The value was “stenosis was mild”.

What about the “Number of cells (250 × 250 μm^2), Adventitia” value [2] of the same compound?
Its value is 17.0 ± 7.1 /250 × 250 μm^2.

What about the “Number of cells (250 × 250 μm^2), Intima” value [2] of the same compound?
The value was 7.1 ± 3.2 /250 × 250 μm^2.

What about the “Number of cells (250 × 250 μm^2), Media” value [2] of the same compound?
The value was 8.0 ± 4.0 /250 × 250 μm^2.
